Reference: US8741940B2, “Microbicidal composition” (Rohm and Haas Company, priority 2005, dated 2014)
“And” between values parts separate entries of the source, which are not always exact repeats. Equal values may be shown once. Read-outs that look alike come from different tables or passages of the source.

Experiments:
Type in all cases: cell-based
[1] = system: Escherichia coli (E. coli—ATCC #8739); assay: Synergy test, microtiter plate high resolution MIC assay, bacterium in M9GY medium; design: Qa (First Component A) / Qb (Second Component B): unit: ppm; settings: for MIC of the component acting alone (QA / QB): E. coli 8739, M9GY, 30° C.
Procedure, shortened: (§1)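 High-resolution microtiter MICs spanned 2 to 10,000 ppm active, tested alongside varying BBIT or MBIT as component A. E. coli was run at ~5×10^6/mL in M9GY (0.2% glucose, 0.1% yeast extract) at 30 °C; C. albicans and A. niger at 5×10^5/mL in PDB. Synergy index is Qa/QA + Qb/QB, with >1 indicating antagonism.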

[2] = system: Aspergillus niger (A. niger—ATCC 16404); assay: Synergy test, microtiter plate high resolution MIC assay, mold in PDB medium; design: Qb (Second Component B) / Qa (First Component A): unit: ppm
Procedure, shortened: as §1

[3] = system: Candida albicans (C. albicans—ATCC 10231); assay: Synergy test, microtiter plate high resolution MIC assay, yeast in PDB medium; design: Qb (Second Component B) / Qa (First Component A): unit: ppm; settings: for MIC of the component acting alone (QA / QB): C. albicans 10231, PDB, 25° C.
Procedure, shortened: as §1

[4] = A=MBIT, B=BBIT, E. coli 8739 - M9GY, 24 hours
[5] = A=MBIT, B=BBIT, A. niger 16404 - PDB, 4 days
[6] = A=MBIT, B=BBIT, C. albicans 10231 - PDB, 48 hours

CCCCn1sc2ccccc2c1=O [BBIT, N-(n-butyl)-1,2-benzisothiazolin-3-one]
Qa (First Component A) [1]: 200
SI (synergy index) [1]: 1.00
Qb (Second Component B) [1, 4]: 100
SI (synergy index) [1, 4]: 1.00
MIC of the component acting alone (QA / QB) ([1]; 24 hours): 200 ppm and 100 ppm
MIC of the component acting alone (QA / QB) ([1]; 48 hours): 100 ppm
MIC of the component acting alone (QA / QB) ([1]; 72 hours): 100 ppm
SI ([1]; E. coli 8739 - M9GY, 24 hours, BBIT + hexylene glycol): 1.00
Qa (First Component A = BBIT) ([1]; E. coli 8739 - M9GY, 24 hours, BBIT alone (Qb 0) or in mixture with hexylene glycol): 100
SI ([1]; E. coli 8739 - M9GY, 24 hours, BBIT with Pentylene glycol): 1.00
SI ([1]; E. coli 8739 - M9GY, 24 hours, BBIT with Potassium sorbate): 1.00
SI ([1]; E. coli 8739 - M9GY, 24 hours, BBIT with Propylparaben): 1.00
SI ([1]; E. coli 8739 - M9GY, 24 hours, BBIT with SDHA): 1.00
SI ([1]; E. coli 8739 - M9GY, 24 hours, BBIT with Sodium benzoate): 1.00
SI ([1]; E. coli 8739 - M9GY, 48 hours, BBIT + DTBMA): 1.00
SI ([1]; E. coli 8739 - M9GY, 48 hours, BBIT + hexamidine diisethionate): 1.00
Qa (First Component A = BBIT) ([1]; E. coli 8739 - M9GY, 48 hours, BBIT alone (Qb 0) or in mixture with DTBMA): 100
Qa (First Component A = BBIT) ([1]; E. coli 8739 - M9GY, 48 hours, BBIT alone (Qb 0) or in mixture with hexamidine diisethionate): 6
SI ([1]; E. coli 8739 - M9GY, 48 hours, BBIT with Phospholipid EFA): 1.00
SI ([1]; E. coli 8739 - M9GY, 72 hours, BBIT + DMDMH): 1.00
SI ([1]; E. coli 8739 - M9GY, 72 hours, BBIT + EDTA): 1.00
SI ([1]; E. coli 8739 - M9GY, 72 hours, BBIT + hexetidine): 1.00
Qa (First Component A = BBIT) ([1]; E. coli 8739 - M9GY, 72 hours, BBIT alone (Qb 0) or in mixture with DMDMH): 100
Qa (First Component A = BBIT) ([1]; E. coli 8739 - M9GY, 72 hours, BBIT alone (Qb 0) or in mixture with EDTA): 100
Qa (First Component A = BBIT) ([1]; E. coli 8739 - M9GY, 72 hours, BBIT alone (Qb 0) or in mixture with hexetidine): 80
SI ([1]; E. coli 8739 - M9GY, 72 hours, BBIT with Methylparaben): 1.00
SI ([1]; E. coli 8739 - M9GY, 72 hours, BBIT with Phenoxyethanol): 1.00
SI ([1]; E. coli 8739 - M9GY, 72 hours, BBIT with Phospholipid PTC): 1.00
SI ([1]; E. coli 8739 - M9GY, 72 hours, BBIT with Quaternium-15): 1.00
Qa (First Component A) [2]: 40
SI (synergy index) [2]: 1.00
MIC of the component acting alone (QA / QB) ([2]; A. niger 16404, PDB, 4 days, 25° C.): 15 ppm
SI ([2]; A. niger 16404 - PDB, 3 days, BBIT + hexylene glycol): 1.00
Qa (First Component A = BBIT) ([2]; A. niger 16404 - PDB, 3 days, BBIT alone (Qb 0) or in mixture with hexylene glycol): 15
SI ([2]; A. niger 16404 - PDB, 3 days, BBIT with Methylparaben): 1.00
SI ([2]; A. niger 16404 - PDB, 3 days, BBIT with Phospholipid PTC): 1.00
SI ([2]; A. niger 16404 - PDB, 3 days, BBIT with Potassium sorbate): 1.00
SI ([2]; A. niger 16404 - PDB, 4 days, BBIT + hexetidine): 1.00
Qa (First Component A = BBIT) ([2]; A. niger 16404 - PDB, 4 days, BBIT alone (Qb 0) or in mixture with hexetidine): 20
SI ([2]; A. niger 16404 - PDB, 4 days, BBIT with Pentylene glycol): 1.00
SI ([2]; A. niger 16404 - PDB, 4 days, BBIT with Phospholipid EFA): 1.00
SI ([2]; A. niger 16404 - PDB, 4 days, BBIT with Quaternium-15): 1.00
SI ([2]; A. niger 16404 - PDB, 7 days, BBIT + DMDMH): 1.00
SI ([2]; A. niger 16404 - PDB, 7 days, BBIT + DTBMA): 1.00
SI ([2]; A. niger 16404 - PDB, 7 days, BBIT + EDTA): 1.00
Qa (First Component A = BBIT) ([2]; A. niger 16404 - PDB, 7 days, BBIT alone (Qb 0) or in mixture with DMDMH): 80
Qa (First Component A = BBIT) ([2]; A. niger 16404 - PDB, 7 days, BBIT alone (Qb 0) or in mixture with DTBMA): 40
Qa (First Component A = BBIT) ([2]; A. niger 16404 - PDB, 7 days, BBIT alone (Qb 0) or in mixture with EDTA): 40
SI ([2]; A. niger 16404 - PDB, 7 days, BBIT with Phenoxyethanol): 1.00
SI ([2]; A. niger 16404 - PDB, 7 days, BBIT with Propylparaben): 1.00
SI ([2]; A. niger 16404 - PDB, 7 days, BBIT with SDHA): 1.00
SI ([2]; A. niger 16404 - PDB, 7 days, BBIT with Sodium benzoate): 1.00
Qb (Second Component B) [2, 5]: 40
SI (synergy index) [2, 5]: 1.00
Qa (First Component A) [3]: 10
SI (synergy index) [3]: 1.00
Qb (Second Component B) [3, 6]: 6
SI (synergy index) [3, 6]: 1.00
MIC of the component acting alone (QA / QB) ([3]; 24 hours): 7.5 ppm and 6 ppm and 8 ppm
MIC of the component acting alone (QA / QB) ([3]; 48 hours): 10 ppm and 7.5 ppm and 8 ppm
SI ([3]; C. albicans 10231 - PDB, 24 hours, BBIT + DMDMH): 1.00
SI ([3]; C. albicans 10231 - PDB, 24 hours, BBIT + DTBMA): 1.00
SI ([3]; C. albicans 10231 - PDB, 24 hours, BBIT + EDTA): 1.00
SI ([3]; C. albicans 10231 - PDB, 24 hours, BBIT + hexamidine diisethionate): 1.00
SI ([3]; C. albicans 10231 - PDB, 24 hours, BBIT + hexylene glycol): 1.00
Qa (First Component A = BBIT) ([3]; C. albicans 10231 - PDB, 24 hours, BBIT alone (Qb 0) or in mixture with DMDMH): 7.5
Qa (First Component A = BBIT) ([3]; C. albicans 10231 - PDB, 24 hours, BBIT alone (Qb 0) or in mixture with DTBMA): 15
Qa (First Component A = BBIT) ([3]; C. albicans 10231 - PDB, 24 hours, BBIT alone (Qb 0) or in mixture with EDTA): 7.5
Qa (First Component A = BBIT) ([3]; C. albicans 10231 - PDB, 24 hours, BBIT alone (Qb 0) or in mixture with hexamidine diisethionate): 10
Qa (First Component A = BBIT) ([3]; C. albicans 10231 - PDB, 24 hours, BBIT alone (Qb 0) or in mixture with hexylene glycol): 10
SI ([3]; C. albicans 10231 - PDB, 24 hours, BBIT with Methylparaben): 1.00
SI ([3]; C. albicans 10231 - PDB, 24 hours, BBIT with Pentylene glycol): 1.00
SI ([3]; C. albicans 10231 - PDB, 24 hours, BBIT with Phenoxyethanol): 1.00
SI ([3]; C. albicans 10231 - PDB, 24 hours, BBIT with Phospholipid EFA): 1.00
SI ([3]; C. albicans 10231 - PDB, 24 hours, BBIT with Phospholipid PTC): 1.00
SI ([3]; C. albicans 10231 - PDB, 24 hours, BBIT with Potassium sorbate): 1.00
SI ([3]; C. albicans 10231 - PDB, 24 hours, BBIT with Propylparaben): 1.00
SI ([3]; C. albicans 10231 - PDB, 24 hours, BBIT with Quaternium-15): 1.00
SI ([3]; C. albicans 10231 - PDB, 24 hours, BBIT with SDHA): 1.00
SI ([3]; C. albicans 10231 - PDB, 48 hours, BBIT with Sodium benzoate): 1.00
SI ([3]; C. albicans 10231 - PDB, 72 hours, BBIT + hexetidine): 1.00
Qa (First Component A = BBIT) ([3]; C. albicans 10231 - PDB, 72 hours, BBIT alone (Qb 0) or in mixture with hexetidine): 15
